According to publication PMC6488579 (2019):

Assays:
[1] = tested on: HOC6-S-S-C6-DEX04 (DNA, aptamer) ACACGACGAGGGACGAGGAGTACTTGCCAACGATAACGTCGTTGGATCTGTCTGTGCCC; experiment: electrochemical impedance, Rct change
[2] = tested on: DEX04 (DNA, aptamer) ATATCATATGCTCCAATTACACGACGAGGGACGAGGAGTACTTGCCAACGATAACGTCGTTGGATCTGTCTGTGCCCATATTACACTTGCGATCT; experiment: fluorescence bead-binding, eluted DNA; details: 150 nM aptamer
[3] = tested on: DEX05 (DNA, aptamer) ATATCATATGCTCCAATTACAGGCTTGGATTAGTGTATCCAACTAGTATCGTGTATACTAGGCCCTTGCTACCCTGTGATATTACACTTGCGATCT; experiment: fluorescence bead-binding saturation, eluted DNA; details: immobilised compound (DXN Sepharose 6β beads); aptamer up to 400 nM; NB [sic]
[4] = tested on: DEX06 (DNA, aptamer) ATATCATATGCTCCAATTACACACGAAACACAAGCAGTGAGACTGCCTACGTCCGTAGTTGTGTTGAGTTTGCTCTCCATATTACACTTGCGATCT; experiment: fluorescence bead-binding saturation, eluted DNA; details: immobilised compound (DXN Sepharose 6β beads); aptamer up to 400 nM; NB [sic]
[5] = tested on: DEX03 (DNA, aptamer) ATATCATATGCTCCAATTACGCGTAGGGATGTGTAAGGTCTGTACACCTCGGTTTACTCTATGCTTCGCATATTGTCGATATTACACTTGCGATCT; experiment: fluorescence bead-binding saturation, eluted DNA; details: immobilised compound (DXN Sepharose 6β beads); binding buffer; aptamer 50-400 nM
[6] = tested on: DEX10 (DNA, aptamer) ATATCATATGCTCCAATTGGACAGCTGGCCGCGAAGCGAGACACGTATAAGGTACTATACGGCTGGCATATGTATCTGATATTACACTTGCGATCT; experiment: fluorescence bead-binding saturation, eluted DNA; details: immobilised compound (DXN Sepharose 6β beads); binding buffer; aptamer 50-400 nM
[7] = tested on: DEX04 (DNA, aptamer) ATATCATATGCTCCAATTACACGACGAGGGACGAGGAGTACTTGCCAACGATAACGTCGTTGGATCTGTCTGTGCCCATATTACACTTGCGATCT; experiment: fluorescence bead-binding saturation, eluted DNA; details: immobilised compound (DXN Sepharose 6β beads); binding buffer; aptamer 50-400 nM
[8] = tested on: DEX01 (DNA, aptamer) ATATCATATGCTCCAATTACACCCCACGTAGTGTCACAGCACGCTTATAGTAAGTGAAGTGACGGGTTGCTGATGTGATATTACACTTGCGATCT; experiment: fluorescence bead-binding saturation, eluted DNA; details: immobilised compound (DXN Sepharose 6β beads); binding buffer; aptamer 50-400 nM
[9] = highest tested 1 nM (below detection limit for DXN), measured in 10 mM PBS pH 7.4

In the case of `C[C@]12CC[C@@H]3c4ccc(O)cc4CC[C@H]3[C@@H]1CC[C@@H]2O`, the binding [1, 9] is reported as “no” and the binding ([2]; immobilised compound (E2 beads, 5 µL, 6–14 µmol/mL)) is reported as “no”.

In the case of `C#C[C@]1(O)CC[C@H]2[C@@H]3CCC4=CC(=O)CC[C@@H]4[C@H]3CC[C@@]21C`, the binding [1, 9] is reported as “no” and the binding ([2]; immobilised compound (NET beads, 5 µL, 6–14 µmol/mL)) is reported as “no”.

With `CC(=O)[C@H]1CC[C@H]2[C@@H]3CCC4=CC(=O)CC[C@]4(C)[C@H]3CC[C@]12C` the binding [1, 9] was “no” and the binding ([2]; immobilised compound (P4 beads, 20 µL, 4.4 nmol/mL)) was “no”.

`C[C@@H]1C[C@H]2[C@@H]3CCC4=CC(=O)C=C[C@]4(C)[C@@]3(F)[C@@H](O)C[C@]2(C)[C@@]1(O)C(=O)CO` was tested, and the binding [3] was “no”, the binding [4] was “no” and the KD [5] was 72.83 nM. For the same compound, the KD [6] was 715 nM, the KD [7] was 18.35 nM and the binding ([1]; free DXN 50 and 100 nM, 10 mM PBS pH 7.4, 10 mM ferri/ferrocyanide) was “yes”. For the same compound, the KD [8] was 15.71 nM.
